A short description of this assay: Fluoride Uptake Study, FDA monograph evaluation (FDA Method #40). Particulars: comparison between formulas, Tables 2 and 3. On the set-up: species or system bovine. Here is the method: Formulas 1 and 2, according to Example 1 above, are assessed by Fluoride Uptake Study, FDA monograph evaluation (FDA Method #40). A Control Formula, Placebo Formula, and USP Toothpaste Standard Formula are also assessed for comparison.
Sound, upper, central, bovine incisors were selected and cleaned of all adhering soft tissue. A core of enamel 3 mm in diameter was prepared from each tooth by cutting perpendicular to the labial surface with a hollow-core diamond drill bit. This was performed under water to prevent overheating of the specimens. Each specimen was embedded in the end of a plexiglass rod (114″ diameter×2″ long) using methylmethacrylate. […]
Each enamel specimen was then etched by immersion into 0.5 ml of 1M HC104 for 15 seconds. […] A sample of each solution was then buffered with TISAB to a pH of 5.2 (0.25 ml sample, 0.5 ml TISAB and 0.25 ml IN NaOH) and the fluoride content determined by comparison to a similarly prepared standard curve (1 ml std and 1 ml TISAB). For use in depth of etch calculation, the Ca content of the etch solution was determined by taking 50μl and analyzing for Ca by atomic absorption (0.05 ml qs to 5 ml). […]
The treatments were performed using supernatants of the dentifrice slurries. […] One layer of enamel was then removed from each specimen and analyzed for fluoride and calcium as outlined above (i.e., 15 second etch). […]

Each structure is given as a SMILES string.

Regarding `O.O.O.O=C([O-])CC(O)(CC(=O)[O-])C(=O)[O-].O=C([O-])CC(O)(CC(=O)[O-])C(=O)[O-].[Zn+2].[Zn+2].[Zn+2]` [zinc citrate trihydrate], the “enamel fluoride uptake, comparison in words” value was “will not have a significant negative impact on Enamel Fluoride Uptake”.

These data come from patent US11529295B2, “Oral care composition” (Church & Dwight Co., Inc., priority 2019, dated 2022).
